These are literature values, as cited in US20070072813A1, “Methods for preventing and treating metabolic disorders and new pyrazole-O-glycoside derivatives” (priority 2005, published 2007).

For this data set the following is noted: metformin on its own, in the diabetic.

SMILES strings stand for the structures.

`CN(C)C(=N)N=C(N)N` [metformin]: the “average improvement in the HbA1c value” is given as 1.0-1.5%.
